Key:
Settings in all cases: 500 μM ATPγS vs none; normal (aerated) culture lysate; competitive
[1] = target: Phosphoglycerate kinase, Pgk (Mycobacterium tuberculosis, UniProt P9WID1)
[2] = target: Polyphosphate kinase, Ppk (Mycobacterium tuberculosis, UniProt P9WHV9)
[3] = target: Universal stress protein (Mycobacterium tuberculosis, UniProt P9WLB5)
[4] = target: ATP-dependent protease ATP-binding subunit, ClpC1 (Mycobacterium tuberculosis, UniProt P9WPC9)
[5] = target: Adenylate kinase, Adk (Mycobacterium tuberculosis, UniProt P9WKF5)
Adenylate kinase, Adk, sequence (P9WKF5 whole entry): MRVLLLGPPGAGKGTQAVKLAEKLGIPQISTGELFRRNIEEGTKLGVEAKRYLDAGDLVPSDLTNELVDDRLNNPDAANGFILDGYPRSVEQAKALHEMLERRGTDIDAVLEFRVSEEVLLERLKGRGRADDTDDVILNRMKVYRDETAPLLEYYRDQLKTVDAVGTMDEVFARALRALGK

Polyphosphate kinase, Ppk, sequence (P9WHV9 whole entry): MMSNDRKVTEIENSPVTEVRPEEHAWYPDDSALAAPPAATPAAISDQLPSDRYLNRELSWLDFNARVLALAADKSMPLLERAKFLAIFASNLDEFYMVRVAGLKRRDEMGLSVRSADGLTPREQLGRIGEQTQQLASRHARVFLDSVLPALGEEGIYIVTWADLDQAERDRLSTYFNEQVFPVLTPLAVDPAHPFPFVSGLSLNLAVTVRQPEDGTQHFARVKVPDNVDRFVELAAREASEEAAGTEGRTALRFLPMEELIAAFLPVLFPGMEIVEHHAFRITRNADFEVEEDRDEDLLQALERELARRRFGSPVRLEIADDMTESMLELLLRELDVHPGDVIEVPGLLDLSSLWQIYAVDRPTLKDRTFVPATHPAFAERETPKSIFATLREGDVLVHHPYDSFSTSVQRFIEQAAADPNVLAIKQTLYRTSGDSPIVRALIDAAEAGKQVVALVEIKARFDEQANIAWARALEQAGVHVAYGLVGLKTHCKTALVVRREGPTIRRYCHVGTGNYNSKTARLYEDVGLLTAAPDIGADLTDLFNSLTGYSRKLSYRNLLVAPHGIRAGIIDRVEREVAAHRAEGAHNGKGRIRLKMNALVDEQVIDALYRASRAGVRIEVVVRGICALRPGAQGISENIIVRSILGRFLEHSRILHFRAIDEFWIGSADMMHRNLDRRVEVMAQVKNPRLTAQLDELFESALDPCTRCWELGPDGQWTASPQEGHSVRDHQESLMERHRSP
Phosphoglycerate kinase, Pgk, sequence (P9WID1 whole entry): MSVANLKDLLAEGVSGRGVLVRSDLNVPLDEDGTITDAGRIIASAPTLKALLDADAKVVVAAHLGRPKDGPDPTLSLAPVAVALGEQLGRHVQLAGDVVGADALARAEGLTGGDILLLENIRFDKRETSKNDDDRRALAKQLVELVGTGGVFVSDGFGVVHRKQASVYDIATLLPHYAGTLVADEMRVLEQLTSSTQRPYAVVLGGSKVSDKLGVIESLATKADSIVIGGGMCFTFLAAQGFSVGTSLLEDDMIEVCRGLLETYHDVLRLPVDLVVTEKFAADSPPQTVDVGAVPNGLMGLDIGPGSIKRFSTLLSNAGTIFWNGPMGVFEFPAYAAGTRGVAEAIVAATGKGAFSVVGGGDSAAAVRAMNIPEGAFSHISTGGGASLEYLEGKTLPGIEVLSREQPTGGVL
Universal stress protein, sequence (P9WLB5 whole entry): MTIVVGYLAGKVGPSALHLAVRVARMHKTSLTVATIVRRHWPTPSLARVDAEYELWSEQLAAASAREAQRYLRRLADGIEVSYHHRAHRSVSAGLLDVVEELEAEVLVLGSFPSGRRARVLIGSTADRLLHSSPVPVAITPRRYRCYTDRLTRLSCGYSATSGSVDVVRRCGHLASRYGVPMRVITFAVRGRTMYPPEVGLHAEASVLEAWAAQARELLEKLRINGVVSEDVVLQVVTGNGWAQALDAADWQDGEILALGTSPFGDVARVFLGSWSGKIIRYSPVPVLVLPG
ATP-dependent protease ATP-binding subunit, ClpC1, sequence (P9WPC9 whole entry): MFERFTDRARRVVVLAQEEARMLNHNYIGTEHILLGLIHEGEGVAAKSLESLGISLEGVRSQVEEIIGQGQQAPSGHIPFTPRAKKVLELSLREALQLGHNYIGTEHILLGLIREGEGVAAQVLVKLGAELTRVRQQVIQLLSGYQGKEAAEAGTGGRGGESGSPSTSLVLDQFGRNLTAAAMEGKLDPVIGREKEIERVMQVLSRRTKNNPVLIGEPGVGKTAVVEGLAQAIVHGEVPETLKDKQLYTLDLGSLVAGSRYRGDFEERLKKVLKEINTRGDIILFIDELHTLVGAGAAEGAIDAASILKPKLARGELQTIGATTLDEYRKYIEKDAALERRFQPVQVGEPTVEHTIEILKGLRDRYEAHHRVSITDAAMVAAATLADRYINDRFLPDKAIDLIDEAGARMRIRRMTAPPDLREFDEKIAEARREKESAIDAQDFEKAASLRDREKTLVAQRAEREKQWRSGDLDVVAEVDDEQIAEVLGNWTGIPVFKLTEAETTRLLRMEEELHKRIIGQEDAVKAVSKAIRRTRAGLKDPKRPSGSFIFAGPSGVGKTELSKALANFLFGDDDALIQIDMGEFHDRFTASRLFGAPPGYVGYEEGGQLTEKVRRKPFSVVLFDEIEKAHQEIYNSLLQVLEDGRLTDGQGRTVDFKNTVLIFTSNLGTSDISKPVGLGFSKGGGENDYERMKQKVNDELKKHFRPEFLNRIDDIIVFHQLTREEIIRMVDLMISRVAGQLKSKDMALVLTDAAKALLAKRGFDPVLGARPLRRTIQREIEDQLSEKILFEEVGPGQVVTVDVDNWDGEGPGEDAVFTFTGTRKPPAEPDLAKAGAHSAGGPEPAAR

Nc1ncnc2c1ncn2[C@@H]1O[C@H](COP(=O)(O)OP(=O)(O)OP(O)(O)=S)[C@@H](O)[C@H]1O [ATPγS, adenosine 5′-[γ-thio]triphosphate tetralithium]
Fold change [1]: 6.56 fold | Fold change [2]: 6.80 fold | Fold change [3]: 4.75 fold | Fold change [4]: 3.98 fold | Fold change [5]: 2.12 fold

— paper PMC3675820 (Molecular & Cellular Proteomics : MCP, 2013)
